Experimental data reported in article PMC11151065, “Boosted Enzyme Activity via Encapsulation within Metal–Organic Frameworks with Pores Matching Enzyme Size and Shape” (Advanced Science, 2024).

Biological target: T1, cytochrome c (Cyt c) (Bos taurus, UniProt P62894)
T1 construct: gene CYCS; native holoprotein from cow heart (Sigma-Aldrich), free in solution
Test: absorbance of ABTS radical cation at […] nm
Assay type: biochemical
Conditions: free enzyme; peroxidase activity with H2O2 co-substrate; room temperature

T1 sequence (P62894 2-105): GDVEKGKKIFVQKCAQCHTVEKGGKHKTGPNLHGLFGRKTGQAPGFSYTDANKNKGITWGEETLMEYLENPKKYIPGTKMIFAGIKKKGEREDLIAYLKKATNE

CCn1c(=NN=c2sc3cc(S(=O)(=O)O)ccc3n2CC)sc2cc(S(=O)(=O)O)ccc21 [ABTS, 2,2′‐azino‐bis (3‐ethylbenzothiazoline‐6‐sulfonic acid)]
absorbance of ABTS radical cation at 415 nm: peroxidase catalytic properties of Cyt c were utilized to oxidize ABTS to ABTS▪^+
